Structures are written as SMILES. Where only a bound is given, the exact number is not on record here.

The source of these data is patent publication US8217066B2, “Compounds as lysophosphatidic acid receptor antagonists” (Amira Pharmaceuticals, Inc., priority 2009, dated 2012).

Assay [1] has as its system pancreatic cancer cell lines. The note with it: cited from earlier work.
The subject of assay [2] is highly peritoneal metastatic pancreatic cancer cell line. Conditions: cited from earlier work.
The next assay has as its system LPA receptor. Conditions: compared with LPA1 (−/−) mice, in which renal fibrosis was significantly attenuated; cited from earlier work.
A further assay concerns the target T1, human LPA1 (Homo sapiens, UniProt Q92633).
T1 construct: the full-length cDNA for human LPA1 was obtained by PCR of the reverse transcription reaction; expressed in transfected cells
Put plainly: LPA1 calcium flux assay (HLPA1 Ca Flux). It counts as cell-based. The note with it: CHO cells stably expressing human LPA1, stimulated with 10 nM LPA. A general note: Calcium flux is commonly read through the fluorescence of an indicator in the cells.

The test system of assay [3] is A2058 human melanoma cells. Put plainly: LPA1 chemotaxis assay. It counts as cell-based. Conditions: 100 nM LPA, read-out: inhibition of LPA-driven chemotaxis, IC50. Here is the method: Chemotaxis of the A2058 human melanoma cells was measured using the Neuroprobe ChemoTx® System plates (8 μm pore size, 5.7 mm diameter sites). The filter sites were coated with 0.001% fibronectin (Sigma) in 20 mM Hepes, pH 7.4 and allowed to dry. A2058 cells were serum-starved for 24 hours, then harvested with Cell Stripper and resuspended in DMEM containing 0.1% fatty-acid-free bovine serum albumin (BSA) to a concentration of 1×10^6/ml. Cells were mixed with an equal volume of test compound (2×) in DMEM containing 0.1% fatty-acid-free BSA and incubated at 37° C. for 15 minutes. LPA (100 nM in DMEM containing 0.1% fatty-acid-free BSA) or vehicle was added to each well of the lower chamber and 50 μl of the cell suspension/test compound mix was applied to the upper portion of the ChemoTx plate. Plates were incubated at 37° C. for three hours and then the cells removed from the upper portion by rinsing with PBS and scraping. The filter was dried then stained with HEMA 3 Staining System (Fisher Scientific). The absorbance of the filter was read at 590 nm and IC50s were determined using Symyx Assay Explorer.

T1 sequence (Q92633 whole entry): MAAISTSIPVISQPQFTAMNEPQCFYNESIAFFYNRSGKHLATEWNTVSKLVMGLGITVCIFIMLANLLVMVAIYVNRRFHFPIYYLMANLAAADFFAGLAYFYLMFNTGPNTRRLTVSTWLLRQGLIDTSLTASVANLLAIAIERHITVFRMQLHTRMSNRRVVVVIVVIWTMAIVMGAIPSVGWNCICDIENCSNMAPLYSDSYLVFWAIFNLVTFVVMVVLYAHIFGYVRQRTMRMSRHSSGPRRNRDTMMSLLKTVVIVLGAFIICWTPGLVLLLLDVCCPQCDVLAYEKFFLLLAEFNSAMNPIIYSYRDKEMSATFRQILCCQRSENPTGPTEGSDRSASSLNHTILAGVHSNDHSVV

Take `Cc1noc(-c2ccc(CSCCC(=O)O)cc2)c1NC(=O)OC(C)c1ccccc1Cl` (centres unmarked) [Ki16425]: in assay [1], the “in vitro migration in response to LPA and peritoneal fluid (ascites) from pancreatic cancer patients” value is “effectively blocked”. The “LPA-induced and ascites-induced invasion activity” value in assay [2] is on record as “blocked”. Also, the “development of renal fibrosis in UUO mice” value in the assay with LPA receptor is given as “closely resembled the LPA1 (−/−) mice”.

Take `Cc1noc(-c2ccc(-c3ccc(C4(C(=O)O)CC4)cc3)cc2)c1[C@H](O)CSCc1ccccc1` [Compound 65, 1-{4′-[4-((S)-2-Benzylsulfanyl-1-hydroxy-ethyl)-3-methyl-isoxazol-5-yl]-biphenyl-4-yl}-cyclopropanecarboxylic acid]: the figures for the IC50 (at human LPA1; in assay [3]) were < 300 nM and < 100 nM, respectively.

In the case of `Cc1noc(-c2ccc(-c3ccc(C4(C(=O)NS(C)(=O)=O)CC4)cc3)cc2)c1[C@H](O)CSCc1ccccc1` [Compound 77, N-(1-{4′-[4-((S)-2-Benzylsulfanyl-1-hydroxy-ethyl)-3-methyl-isoxazol-5-yl]-biphenyl-4-yl}-cyclopropanecarbonyl)-methanesulfonamide], the results for the IC50 (at human LPA1; in assay [3]) were < 300 nM and < 100 nM, respectively.

Turning to `Cc1noc(-c2ccc(-c3ccc(C4(C(=O)O)CC4)cc3)cc2)c1CC(F)(F)CCc1ccccc1` [Compound 21, 1-{4′-[4-(2,2-Difluoro-4-phenyl-butyl)-3-methyl-isoxazol-5-yl]-biphenyl-4-yl}-cyclopropanecarboxylic acid], the results for the IC50 (at human LPA1; in assay [3]) were < 300 nM and < 100 nM, respectively.

Consider `Cc1noc(-c2ccc(-c3ccc(C4(C(=O)NS(C)(=O)=O)CC4)cc3)cc2)c1[C@H](O)CO[C@H](C)c1ccccc1` [Compound 72, N-[1-(4′-{4-[(S)-1-Hydroxy-2-((R)-1-phenyl-ethoxy)-ethyl]-3-methyl-isoxazol-5-yl]-biphenyl-4-yl)-cyclopropanecarbonyl}-methanesulfonamide], for which the results for the concentration for half-maximal inhibition (IC50) (at human LPA1; in assay [3]) were < 300 nM and < 100 nM, respectively.

What is called IC50 is the concentration that inhibits the measured activity by half.
